Laboratory results reported in patent publication US6335339B1, “Triazine antiviral compounds” (Scriptgen Pharmaceuticals, Inc., priority 1998, dated 2002).

Legend:
HBV εRNA = test: εRNA/oligonucleotide hybridization inhibition assay with rRNA competitor; assay type: binding, Hepatitis B virus; settings: for IC50: radiolabeled εRNA, 60-fold excess rRNA competitor; for Specificity: ratio RRE+rRNA IC50/εRNA+rRNA IC50, max = inactive in RRE assay
Summary of the method: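 Inhibition of hybridization between 25 nM [32P]-εRNA and 100 nM biotinylated complementary oligonucleotide (50 mM Tris-HCl pH 7.5, 200 mM KCl, 5 mM MgCl2, 60 min, 25 °C), hybrids captured by streptavidin filter and counted. Titrations 0.1-200 μM with 60-fold excess rRNA; specificity = RRE+rRNA IC50/εRNA+rRNA IC50.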

HIV derived RRE RNA = test: heterologous hybridization inhibition assay with RRE RNA; assay type: binding; settings: radiolabeled RRE RNA, rRNA competitor

Row | SMILES | IC50 (HBV εRNA) | Specificity (HBV εRNA) | RRE + rRNA IC50 (μM) (HIV derived RRE RNA) | IC50 (HIV derived RRE RNA)
1 | FC(F)(F)c1cccc(Nc2nc(Nc3cccc(Br)c3)nc(N3CCOCC3)n2)c1 [Compound 38] | 34.9 µM | max. | inactive | 
2 | O=[N+]([O-])c1ccc(Nc2nc(N/N=C/c3cccc(Cl)c3)nc(N3CCCCC3)n2)cc1 [Compound 41] | 24.9 µM | max. | inactive | 
3 | CNc1nc(NN=Cc2ccccc2[N+](=O)[O-])nc(Nc2ccccc2)n1 [Compound 65] | 99.9 µM | max. | inactive | 
4 | Cc1ccc(Nc2nc(NN=Cc3cccc(Br)c3)nc(Nc3ccccc3)n2)c(C)c1 [Compound 49] | 35 µM | max. | inactive | 
5 | O=[N+]([O-])c1cc(C=NNc2nc(Nc3ccccc3)nc(N3CCOCC3)n2)ccc1Cl [Compound 52] | 66 µM | max. | inactive | 
6 | CC(C)(C)Nc1nc(NCc2ccccc2)nc(NN=Cc2ccc3c(c2)OCO3)n1 [Compound 67] | 47.7 µM | max. | inactive | 
7 | CCN(CC)c1nc(NN=Cc2cc([N+](=O)[O-])ccc2OC)nc(Nc2cc(C)ccc2C)n1 [Compound 85] | 53.8 µM | max. | inactive | 
8 | CCN(CC)c1nc(NN=Cc2ccc(F)cc2)nc(Nc2ccc([N+](=O)[O-])cc2)n1 [Compound 68] | 33 µM | max. | inactive | 
9 | Cc1[nH]c2ccccc2c1C=NNc1nc(Nc2ccccc2)nc(N2CCOCC2)n1 [Compound 4] | 16.3 µM | max. | inactive | 
10 | COc1ccc(C=NNc2nc(Nc3ccccc3)nc(Nc3ccc(C)cc3C)n2)c(OC)c1 [Compound 61] | 42.6 µM | max. | inactive | 
11 | Cc1ccc(Nc2nc(NN=Cc3ccc(Cl)cc3)nc(Nc3ccccc3)n2)c(C)c1 [Compound 42] | 30 µM | max. | inactive | 
12 | Cc1[nH]c2ccccc2c1C=NNc1nc(NCc2ccccc2)nc(Nc2ccccc2)n1 [Compound 50] | 39.9 µM | max. | inactive | 
13 | Oc1ccc(Nc2nc(Nc3cccc(C(F)(F)F)c3)nc(N3CCOCC3)n2)cc1 [Compound 53] | 70.1 µM | max. | inactive | 
14 | O=[N+]([O-])c1ccc(C=NNc2nc(Nc3ccccc3)nc(NC3CCCCC3)n2)cc1 [Compound 46] | 23.1 µM | max. | inactive | 
15 | COc1ccc(C=NNc2nc(Nc3ccc([N+](=O)[O-])cc3)nc(N3CCCCC3)n2)cc1 [Compound 44] | 35 µM | max. | inactive | 
16 | CC(C)c1ccc(C=NNc2nc(Nc3ccc([N+](=O)[O-])cc3)nc(N3CCCCCC3)n2)cc1 [Compound 56] | 42.1 µM | max. | inactive | 
17 | CC(C)(C)Nc1nc(NCc2ccccc2)nc(N/N=C/c2ccccc2F)n1 [Compound 93, 2-fluorobenzaldehyde N-[4-(benzylamino)-6-(tert-butylamino)-1,3,5-triazin-2-yl]hydrazone] | 12.7 µM | max | Inactive | 
18 | CCCCN(CCCC)c1nc(NN=C(C)c2ccccc2)nc(Nc2ccc([N+](=O)[O-])cc2)n1 [Compound 74] | 126 µM | max. | inactive | 
19 | Cc1ccc(Nc2nc(NN=Cc3ccc(Cl)c(Cl)c3)nc(Nc3ccccc3)n2)c(C)c1 [Compound 40] | 21.9 µM | max. | inactive | 
20 | CCN(CC)c1nc(N/N=C/c2ccc([N+](=O)[O-])cc2)nc(Nc2cc(C)ccc2C)n1 [Compound 63] | 69 µM | max. | inactive | 
21 | COc1ccccc1C=NNc1nc(Nc2ccc([N+](=O)[O-])cc2)nc(Nc2ccc(C)c(C)c2)n1 [Compound 94] | 12 µM | 20.8 |  | 250 µM
22 | Brc1cc2c(cc1C=NNc1nc(NCc3ccccc3)nc(Nc3ccccc3)n1)OCO2 [Compound 43] | 30.1 µM | max. | inactive | 
23 | Cc1ccc(Nc2nc(NN=Cc3ccc4c(c3)OCO4)nc(Nc3ccccc3)n2)c(C)c1 [Compound 51] | 39.9 µM | max. | inactive | 
24 | C(=NNc1nc(Nc2ccccc2)nc(N2CCCCC2)n1)c1ccccc1 [Compound 3] | 66.9 µM | max. | inactive | 
25 | C(=Cc1ccccc1)C=NNc1nc(NCc2ccccc2)nc(Nc2ccccc2)n1 [Compound 91] | 17.1 µM | 46.8 |  | 800 µM
26 | CCCCN(CCCC)c1nc(NN=Cc2c[nH]c3ccccc23)nc(Nc2ccc([N+](=O)[O-])cc2)n1 [Compound 39] | 39.9 µM | max. | inactive | 
27 | Cc1[nH]c2ccccc2c1C=NNc1nc(Nc2ccccc2)nc(N2CCCCC2)n1 [Compound 88] | 11.7 µM | 80.2 |  | 938 µM
28 | CC(C)c1ccc(C=NNc2nc(Nc3ccc([N+](=O)[O-])cc3)nc(N3CCCCC3)n2)cc1 [Compound 62] | 54.3 µM | max. | inactive | 
